Results on 3 compounds are retold here after ChEMBL document CHEMBL3045752, “Sideroxylin and 8-demethylsideroxylin from Eucalyptus saligna (Myrtaceae)” (2001).

Type in all cases: functional
In experiment [1] the test system is Locusta migratoria. Kind of experiment: Antifeedant activity against Locusta migratoria final stadium nymphs at 100 ppm by glass-fiber choice assay.
Experiment [2] deals with Heliothis virescens. Kind of experiment: Antifeedant activity against Heliothis virescens (tobacco budworm) final stadium […] at 100 ppm by glass-fiber choice assay.
Experiment [3] concerns Spodoptera exigua. The experiment in a line: Antifeedant activity against Spodoptera exigua final stadium […] at 100 ppm by glass-fiber choice assay.

For `COc1cc(/C=C/C=O)ccc1O` [CONIFERYL ALDEHYDE], the figures for the AFI in experiment [1], in experiment [2] and in experiment [3] were 4.5%, 2.2% and 4%, respectively.

Consider `COc1c(C)c(O)c2c(=O)cc(-c3ccc(O)cc3)oc2c1C` [SIDEROXYLIN], for which the AFI in experiment [1] was 24.2%; in experiment [2] it was 19.6%; in experiment [3], 21.2%.

Regarding `COc1cc2oc(-c3ccc(O)cc3)cc(=O)c2c(O)c1C` [8-DEMETHYLSIDEROXYLIN], the results for the AFI in experiment [1], in experiment [2] and in experiment [3] were 1.9%, 7.3% and 8.9%, respectively.
